Results published in US6156700A, “3-(1,2-Benzisothiazol- and isoxazol-5-yl)-2,4(1H,3H)-pyrimidinedione or thione and 3-(1,2-benzisothiazol- and isoxazol-5-yl)-4(3H)-pyrimidinone or thione herbicidal agents” (American Cyanmid Company, priority 1998, dated 2000).

Key:
[1] = tested on: Ragweed, Common, Ambrosia artemisifolia; assay: Postemergence herbicidal evaluation, AMBEL; assay type: in vivo, L.
How it was run: (§1)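 Foliar spray, 40 psi, ~0.0157–0.500 kg a.i./ha, vehicle acetone/water 1:1 with 0.5% TWEEN 20, on seedlings grown ~2 weeks. Readout: 0–9 visual injury score relative to control at 4–5 weeks.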

[2] = tested on: Barnyardgrass, Echinochloa crus-galli; assay: Postemergence herbicidal evaluation, ECHCG; assay type: in vivo, (L.) Beau
How it was run: as §1

Galium, Galium aparine = assay: Postemergence herbicidal evaluation, GALAP; assay type: in vivo
How it was run: as §1

MOOVA Monochoria [3] = assay: Postemergence weed control, flooded paddy (Table IV); assay type: in vivo, Monochoria vaginalis; set-up: scale not given here
How it was run: (§2)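 Weeds 3 to 5 cm tall and rice seedlings at the 1.5 to 2.5 leaf stage were flooded, water held 1.5 to 3 cm above soil. Compounds in 50/50 v/v aqueous/acetone went into the flood water at about 0.0313 to 0.500 kg/ha. Injury was rated visually three to four weeks later.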

CYPIR Rice Flatsedge = assay: Preemergence weed control, flooded paddy (Table III); assay type: in vivo, Cyperus iria; set-up: scale not given here
Experimental: (§3) Preemergence herbicidal activity under flooded paddy conditions is determined as follows: plant seeds or propagating organs are planted in the top 0.5 cm of silt loam soil in 32 oz. plastic containers with a diameter of 10.5 cm and no drainage holes. Water is added to these containers and maintained at 1.5 to 3 cm above the soil surface for the duration of the experiment. The test compounds are applied as aqueous/acetone mixtures 50/50 v/v pipetted directly into the flood water to give the equivalent of about 0.0313 to 0.500 kg/ha of active ingredient. The treated containers are placed on greenhouse benches and cared for in accordance with conventional greenhouse procedures. Three to four weeks after treatment, the test is terminated and each container is examined and herbicidal effect rated according to the rating system provided in Example 185. The compounds evaluated are reported by compound number given in Example 185.

[4] = tested on: Barnyardgrass, Echinochloa crus-galli; assay: Preemergence herbicidal evaluation, ECHCG; assay type: in vivo, (L.) Beau; details: 0.2500 kg/ha
How it was run: (§4)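 Values are 0–9 visual ratings of stand, vigor, malformation, size, chlorosis and overall appearance relative to a control, scored 4 to 5 weeks after treatment. Test compound in aqueous acetone was sprayed onto soil right after seeding, at rates equivalent to about 0.0156–0.500 kg per hectare.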

[5] = tested on: Foxtail, Green, Setaria viridis; assay: Preemergence herbicidal evaluation, SETVI; assay type: in vivo, (L.) Beau; details: 0.2500 kg/ha
How it was run: as §4

ORYSAT Rice, Tebonnet = assay: Rice tolerance, flooded paddy (Table IV); assay type: in vivo, Oryza sativa; set-up: scale not given here; details: crop tolerance
How it was run: as §2

[6] = tested on: SAGPY Arrowhead (Pygmaea); assay: Postemergence weed control, flooded paddy (Table IV); assay type: in vivo, Sagittaria pygmaea; set-up: scale not given here
How it was run: as §2

Corn, Field, Zea mays [7] = assay: Postemergence herbicidal evaluation, ZEAMX; assay type: in vivo, L.
How it was run: as §1

CYPSE Flatsedge = assay: Preemergence weed control, flooded paddy (Table III); assay type: in vivo, Cyperus serotinus; set-up: scale not given here
Experimental: as §3

[8] = tested on: Morningglory Spp., Ipomoea Spp.; assay: Postemergence herbicidal evaluation, IPOSS; assay type: in vivo; details: 0.2500 kg/ha
Experimental: In the tests, seedling plants are grown in jiffy flats for about two weeks. The test compounds are dispersed in 50/50 acetone/water mixtures containing 0.5% TWEEN®20, a polyoxyethylene sorbitan monolaurate surfactant of Atlas Chemical Industries, in sufficient quantities to provide the equivalent of about 0.0157 kg to 0.500 kg per hectare of active compound when applied to the plants through a spray nozzle operating at 40 psi for a predetermined time. After spraying, the plants are placed on greenhouse benches and are cared for in accordance with conventional greenhouse procedures. From four to five weeks after treatment, the seedling plants are examined and rated according to the rating system set forth below. Where more than one test is involved for a given compound, the data are averaged.
Results of herbicide evaluation are expressed on a rating scale (0-9). The scale is based upon a visual observation of plant stand, vigor, malformation, size, chlorosis and overall plant appearance as compared with a control.

MOOVA Monochoria [9] = assay: Preemergence weed control, flooded paddy (Table III); assay type: in vivo, Monochoria vaginalis; set-up: scale not given here
Experimental: as §3

[10] = tested on: Velvetleaf, Abutilon theophrasti; assay: Postemergence herbicidal evaluation, ABUTH; assay type: in vivo, Medic.
How it was run: as §1

Corn, Field, Zea mays [11] = assay: Preemergence herbicidal evaluation, ZEAMX; assay type: in vivo, L.; details: 0.2500 kg/ha
How it was run: as §4

[12] = tested on: Velvetleaf, Abutilon theophrasti; assay: Preemergence herbicidal evaluation, ABUTH; assay type: in vivo, Medic.; details: 0.2500 kg/ha
How it was run: as §4

Structure (SMILES) | herbicide rating (0-9) ([1]; 0.2500 kg/ha) | herbicide rating (0-9) ([2]; 0.2500 kg/ha) | herbicide rating (0-9) (Galium, Galium aparine; 0.2500 kg/ha) | herbicidal effect rating (MOOVA Monochoria [3]; 0.1250 kg/ha) | herbicidal effect rating (MOOVA Monochoria [3]; 0.2500 kg/ha) | herbicidal effect rating (MOOVA Monochoria [3]; 0.5000 kg/ha) | herbicidal effect rating (CYPIR Rice Flatsedge; 0.0313 kg/ha) | herbicidal effect rating (CYPIR Rice Flatsedge; 0.0625 kg/ha) | herbicidal effect rating (CYPIR Rice Flatsedge; 0.1250 kg/ha) | herbicidal effect rating (CYPIR Rice Flatsedge; 0.2500 kg/ha) | herbicidal effect rating (CYPIR Rice Flatsedge; 0.5000 kg/ha) | herbicide rating (0-9) [4] | herbicide rating (0-9) [5] | herbicidal effect rating (ORYSAT Rice, Tebonnet; 0.1250 kg/ha) | herbicidal effect rating (ORYSAT Rice, Tebonnet; 0.2500 kg/ha) | herbicidal effect rating (ORYSAT Rice, Tebonnet; 0.5000 kg/ha) | herbicidal effect rating ([6]; 0.1250 kg/ha) | herbicidal effect rating ([6]; 0.2500 kg/ha) | herbicidal effect rating ([6]; 0.5000 kg/ha) | herbicide rating (0-9) (Corn, Field, Zea mays [7]; 0.2500 kg/ha) | further results
COC(=O)COc1ccc(C)cc1-c1nsc2ccc(-n3c(=O)cc(C(F)(F)F)n(C)c3=O)cc12 [Compound 2, Methyl {{2-{5-[3,6-dihydro-3-methyl-4-(trifluoromethyl) -2,6-dioxo-1(2H)-pyrimidinyl]-1,2-benzisothiazol-3-yl]-p-tolyl}oxy}acetate] | 9.0 | 9.0 | 9.0 | 9.0 | 9.0 | 9.0 | 8.0 | 9.0 | 9.0 | 9.0 | 9.0 | 8.3 | 9.0 | 3.0 | 7.0 | 8.0 | 0.0 | 2.0 | 4.0 | 7.5 | herbicide rating (0-9) ([1]; 0.0630 kg/ha): 9.0; herbicide rating (0-9) ([2]; 0.0630 kg/ha): 9.0; herbicide rating (0-9) (Galium, Galium aparine; 0.0630 kg/ha): 9.0; herbicide rating (0-9) (Corn, Field, Zea mays [7]; 0.0630 kg/ha): 8.0; herbicidal effect rating (CYPSE Flatsedge; 0.0313 kg/ha): 0.0; herbicidal effect rating (CYPSE Flatsedge; 0.0625 kg/ha): 0.0; herbicidal effect rating (CYPSE Flatsedge; 0.1250 kg/ha): 0.0; herbicidal effect rating (CYPSE Flatsedge; 0.2500 kg/ha): 0.0; herbicidal effect rating (CYPSE Flatsedge; 0.5000 kg/ha): 0.0; herbicide rating (0-9) [8]: 9.0; herbicidal effect rating (MOOVA Monochoria [9]; 0.0313 kg/ha): 7.0; herbicidal effect rating (MOOVA Monochoria [9]; 0.0625 kg/ha): 9.0; herbicidal effect rating (MOOVA Monochoria [9]; 0.1250 kg/ha): 9.0; herbicidal effect rating (MOOVA Monochoria [9]; 0.2500 kg/ha): 9.0; herbicidal effect rating (MOOVA Monochoria [9]; 0.5000 kg/ha): 9.0; herbicide rating (0-9) ([10]; 0.0630 kg/ha): 9.0; herbicide rating (0-9) ([10]; 0.2500 kg/ha): 9.0; herbicide rating (0-9) (Corn, Field, Zea mays [11]): 5.6; herbicide rating (0-9) [12]: 9.0
COc1ccc(C)cc1-c1nsc2ccc(-n3c(=O)cc(C(F)(F)F)n(C)c3=O)cc12 [Compound 1, 3-[3-(6-Methoxy-m-tolyl)-1,2-benzisothiazol-5-yl]-1-methyl-6-(trifluoromethyl)-2,4(1H,3H)-pyrimidinedione] | 9.0 | 9.0 | 9.0 | 4.5 | 5.5 | 6.5 | 9.0 | 9.0 | 9.0 | 9.0 | 9.0 | 9.0 | 9.0 | 4.0 | 6.0 | 7.0 | 0.0 | 1.0 | 3.0 | 7.0 | herbicide rating (0-9) ([1]; 0.0630 kg/ha): 9.0; herbicide rating (0-9) ([2]; 0.0630 kg/ha): 7.0; herbicide rating (0-9) (Galium, Galium aparine; 0.0630 kg/ha): 9.0; herbicide rating (0-9) (Corn, Field, Zea mays [7]; 0.0630 kg/ha): 6.0; herbicidal effect rating (CYPSE Flatsedge; 0.0313 kg/ha): 1.3; herbicidal effect rating (CYPSE Flatsedge; 0.0625 kg/ha): 3.0; herbicidal effect rating (CYPSE Flatsedge; 0.1250 kg/ha): 6.0; herbicidal effect rating (CYPSE Flatsedge; 0.2500 kg/ha): 9.0; herbicidal effect rating (CYPSE Flatsedge; 0.5000 kg/ha): 8.0; herbicide rating (0-9) [8]: 9.0; herbicidal effect rating (MOOVA Monochoria [9]; 0.0313 kg/ha): 9.0; herbicidal effect rating (MOOVA Monochoria [9]; 0.0625 kg/ha): 9.0; herbicidal effect rating (MOOVA Monochoria [9]; 0.1250 kg/ha): 9.0; herbicidal effect rating (MOOVA Monochoria [9]; 0.2500 kg/ha): 9.0; herbicidal effect rating (MOOVA Monochoria [9]; 0.5000 kg/ha): 9.0; herbicide rating (0-9) ([10]; 0.0630 kg/ha): 9.0; herbicide rating (0-9) ([10]; 0.2500 kg/ha): 9.0; herbicide rating (0-9) (Corn, Field, Zea mays [11]): 6.5; herbicide rating (0-9) [12]: 9.0
COC(=O)COc1cc(C)c(C)cc1-c1nsc2ccc(-n3c(=O)cc(C(F)(F)F)n(C)c3=O)cc12 [Compound 12, Methyl {{6-{5-[3,6-dihydro-3-methyl-4-(trifluoromethyl)-2,6-dioxo-1(2H)-pyrimidinyl]-1,2-benzisothiazol-3-yl}-3,4-xylyl}oxy}acetate] | 9.0 | 9.0 | 9.0 | 9.0 | 9.0 | 9.0 | 9.0 | 9.0 | 9.0 | 9.0 | 9.0 | 6.0 | 9.0 | 7.0 | 7.0 | 7.0 | 0.0 | 4.0 | 9.0 | 9.0 | herbicidal effect rating (CYPSE Flatsedge; 0.0313 kg/ha): 6.0; herbicidal effect rating (CYPSE Flatsedge; 0.0625 kg/ha): 7.0; herbicidal effect rating (CYPSE Flatsedge; 0.1250 kg/ha): 8.0; herbicidal effect rating (CYPSE Flatsedge; 0.2500 kg/ha): 7.0; herbicidal effect rating (CYPSE Flatsedge; 0.5000 kg/ha): 7.0; herbicide rating (0-9) [8]: 9.0; herbicidal effect rating (MOOVA Monochoria [9]; 0.0313 kg/ha): 9.0; herbicidal effect rating (MOOVA Monochoria [9]; 0.0625 kg/ha): 9.0; herbicidal effect rating (MOOVA Monochoria [9]; 0.1250 kg/ha): 9.0; herbicidal effect rating (MOOVA Monochoria [9]; 0.2500 kg/ha): 9.0; herbicidal effect rating (MOOVA Monochoria [9]; 0.5000 kg/ha): 9.0; herbicide rating (0-9) ([10]; 0.2500 kg/ha): 9.0; herbicide rating (0-9) (Corn, Field, Zea mays [11]): 7.0; herbicide rating (0-9) [12]: 9.0
Cn1c(C(F)(F)F)cc(=O)n(-c2ccc3snc(-c4ccccc4)c3c2)c1=O [Compound 4, 1-Methyl-3-(3-phenyl-1,2-benzisothiazol-5-yl)-6-(trifluoromethyl)-2,4(1H,3H)-pyrimidinedione] | 9.0 | 8.0 | 9.0 | 9.0 | 9.0 | 9.0 | 9.0 | 9.0 | 9.0 | 9.0 | 9.0 | 9.0 | 9.0 | 7.0 | 8.0 | 8.0 | 6.0 | 9.0 | 9.0 | 3.0 | herbicidal effect rating (CYPSE Flatsedge; 0.0625 kg/ha): 2.0; herbicidal effect rating (CYPSE Flatsedge; 0.1250 kg/ha): 9.0; herbicidal effect rating (CYPSE Flatsedge; 0.2500 kg/ha): 9.0; herbicidal effect rating (CYPSE Flatsedge; 0.5000 kg/ha): 9.0; herbicide rating (0-9) [8]: 9.0; herbicidal effect rating (MOOVA Monochoria [9]; 0.0313 kg/ha): 9.0; herbicidal effect rating (MOOVA Monochoria [9]; 0.0625 kg/ha): 9.0; herbicidal effect rating (MOOVA Monochoria [9]; 0.1250 kg/ha): 9.0; herbicidal effect rating (MOOVA Monochoria [9]; 0.2500 kg/ha): 9.0; herbicidal effect rating (MOOVA Monochoria [9]; 0.5000 kg/ha): 9.0; herbicide rating (0-9) ([10]; 0.2500 kg/ha): 9.0; herbicide rating (0-9) (Corn, Field, Zea mays [11]): 7.0; herbicide rating (0-9) [12]: 9.0
